According to ChEMBL document CHEMBL1125293 (J Med Chem, 1992):
pIC50: −log10 of the molar value.

Molecular target: T1, Substance-P receptor (Rattus norvegicus, UniProt P14600)
Experiment: Inhibition of [125]I-Bolton Hunter Substance P([125]I-BHSP) binding to Tachykinin receptor 1 from rat forebrain membranes.
Assay type: cell membranes, Membrane

T1 sequence (P14600 whole entry): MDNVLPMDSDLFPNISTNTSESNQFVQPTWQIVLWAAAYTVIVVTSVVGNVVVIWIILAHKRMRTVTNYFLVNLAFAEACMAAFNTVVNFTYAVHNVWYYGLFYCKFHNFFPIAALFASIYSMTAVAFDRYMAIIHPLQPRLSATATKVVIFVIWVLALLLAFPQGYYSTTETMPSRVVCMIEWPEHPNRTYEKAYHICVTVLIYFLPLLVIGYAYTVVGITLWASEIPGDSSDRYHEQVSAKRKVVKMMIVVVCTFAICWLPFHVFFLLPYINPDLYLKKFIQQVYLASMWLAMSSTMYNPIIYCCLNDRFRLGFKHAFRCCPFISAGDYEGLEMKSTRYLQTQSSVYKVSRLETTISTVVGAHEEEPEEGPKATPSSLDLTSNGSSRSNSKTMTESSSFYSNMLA

`C[C@]12Cc3cn4c(nc3CC1CCC1C2CC[C@]2(C)C(=O)CCC12)nc1ccccc14` (stereo not given in full) and `C[C@]12CCC3C(CC[C@@H]4Cc5nc6nc7ccccc7n6cc5C[C@]34C)C1CC[C@@H]2O` (stereo not given in full) cannot be ordered by pIC50: < 5.00 for the first, < 5.00 for the second.

Compared with `CC#C[C@]1(O)CCC2C3CCC4Cc5nc6nc7ccccc7n6cc5C[C@]4(C)C3CC[C@@]21C` (stereo not given in full), `C#CC[C@]1(O)CCC2C3CCC4Cc5nc6nc7ccccc7n6cc5C[C@]4(C)C3CC[C@@]21C` (stereo not given in full) is 0.25 log units lower in pIC50: 6.74 for the first, 6.49 for the second. The first is the more potent here.

`COC(=O)[C@H]1CCC2C3CCC4Cc5nc6nc7ccccc7n6cc5C[C@]4(C)C3CC[C@@]21C` (stereo not given in full) and `CC(C)CCCC(C)[C@@H]1CCC2C3CCC4Cc5nc6nc7ccccc7n6cc5C[C@]4(C)C3CC[C@@]21C` (stereo not given in full) cannot be ordered by pIC50: < 5.00 for the first, < 5.00 for the second.

`C[C@]12Cc3cn4c(nc3CC1CCC1C2CC[C@@]2(C)C1CC[C@@]2(O)c1ccccc1)nc1ccccc14` (stereo not given in full) and `c1ccc2c(c1)nc1nc3c(cn12)CCCC3` cannot be ordered by pIC50: < 5.00 for the first, < 5.00 for the second.

Molecular target: T1, Substance-P receptor
Assay type: cell membranes, Membrane

`C#C[C@]1(O)CCC2C3CC[C@H]4Cc5nc6[nH]c7ccccc7c6cc5C[C@]4(C)C3CC[C@@]21C` (stereo not given in full) and `C#C[C@]1(O)CCC2C3CC[C@H]4Cc5nc6cc7ccccc7n6cc5C[C@]4(C)C3CC[C@@]21C` (stereo not given in full) cannot be ordered by pIC50: < 5.00 for the first, < 5.00 for the second.

Compared with `C[C@]12Cc3cn4c(nc3CC1CCC1C2CC[C@@]2(C)C1CC[C@]2(C)O)nc1ccccc14` (stereo not given in full), `C=C[C@]1(O)CCC2C3CCC4Cc5nc6nc7ccccc7n6cc5C[C@]4(C)C3CC[C@@]21C` (stereo not given in full) is 0.37 log units higher in pIC50: 6.70 for the first, 7.07 for the second. The second is the more potent here.

`COC(=O)CCC(C)[C@H]1CCC2C3C(C[C@H](O)[C@@]21C)[C@@]1(C)Cc2cn4c(nc2CC1C[C@H]3O)nc1ccccc14` (stereo not given in full) and `CC(CCC(=O)O)[C@H]1CCC2C3C(C[C@H](O)[C@@]21C)[C@@]1(C)Cc2cn4c(nc2CC1C[C@H]3O)nc1ccccc14` (stereo not given in full) cannot be ordered by pIC50: < 5.60 for the first, < 5.00 for the second.

`Cc1cc(C)n2c(n1)nc1ccccc12` and `C=CC1=CCCC2Cc3nc4nc5ccccc5n4cc3C[C@]12C` (stereo not given in full) cannot be ordered by pIC50: < 5.00 for the first, < 5.00 for the second.

First: C[C@]12Cc3cn4c(nc3CC1CCC1C2CC[C@@]2(C)C1CC[C@@H]2O)nc1ccccc14 (stereo not given in full)
Second: C[C@@]12CCCC1C1CCC3Cc4nc5nc6ccccc6n5cc4C[C@]3(C)C1CC2 (stereo not given in full)
The pIC50 of the first is higher: 6.66 for the first, < 5.00 for the second.

First: C#C[C@]1(O)CCC2C3CC[C@H]4Cc5nc6nc7cc8ccccc8cc7n6cc5C[C@]4(C)C3CC[C@@]21C (stereo not given in full)
Second: C#C[C@]1(OC)CCC2C3CCC4Cc5nc6nc7ccccc7n6cc5C[C@]4(C)C3CC[C@@]21C (stereo not given in full)
The pIC50 of the first is higher: 6.49 for the first, < 5.00 for the second. The first is the more potent here.
